Laboratory results as given in patent publication US11498899B2, “Nitrone herbicides” (FMC Corporation, priority 2016, dated 2022).

How the values were obtained:
[1] = test system: barnyardgrass (Echinochloa crus-galli); experiment: Test A preemergence, visual injury rating 0-100 (0 no effect, 100 complete control); format: in vivo
[2] = test system: foxtail, giant (giant foxtail, Setaria faberii); experiment: Test A preemergence, visual injury rating 0-100; format: in vivo
[3] = test system: kochia (Kochia scoparia); experiment: Test A preemergence, visual injury rating 0-100; format: in vivo
[4] = test system: pigweed (Amaranthus retroflexus); experiment: Test A preemergence, visual injury rating 0-100; format: in vivo
[5] = test system: ragweed (common ragweed, Ambrosia elatior); experiment: Test A preemergence, visual injury rating 0-100; format: in vivo
[6] = test system: ryegrass, Italian (Italian ryegrass, Lolium multiflorum); experiment: Test A preemergence, visual injury rating 0-100; format: in vivo
[7] = test system: barnyardgrass (Echinochloa crus-galli); experiment: Test A postemergence, visual injury rating 0-100; format: in vivo; conditions: 0 to 100 scale
[8] = test system: blackgrass (Alopecurus myosuroides); experiment: Test A postemergence, visual injury rating 0-100; format: in vivo; conditions: 0 to 100 scale
[9] = test system: corn (Zea mays); experiment: Test A postemergence, visual injury rating 0-100; format: in vivo; conditions: 0 to 100 scale
[10] = test system: foxtail, giant (giant foxtail, Setaria faberii); experiment: Test A postemergence, visual injury rating 0-100; format: in vivo; conditions: 0 to 100 scale
[11] = test system: galium (catchweed bedstraw, Galium aparine); experiment: Test A postemergence, visual injury rating 0-100; format: in vivo; conditions: 0 to 100 scale
[12] = test system: kochia (Kochia scoparia); experiment: Test A postemergence, visual injury rating 0-100; format: in vivo; conditions: 0 to 100 scale
[13] = test system: pigweed (Amaranthus retroflexus); experiment: Test A postemergence, visual injury rating 0-100; format: in vivo; conditions: 0 to 100 scale
[14] = test system: ragweed (common ragweed, Ambrosia elatior); experiment: Test A postemergence, visual injury rating 0-100; format: in vivo; conditions: 0 to 100 scale
[15] = test system: ryegrass, Italian (Italian ryegrass, Lolium multiflorum); experiment: Test A postemergence, visual injury rating 0-100; format: in vivo; conditions: 0 to 100 scale
[16] = test system: wheat (Triticum aestivum); experiment: Test A postemergence, visual injury rating 0-100; format: in vivo; conditions: 0 to 100 scale
[17] = test system: ducksalad (Heteranthera limosa); experiment: Test B flooded paddy test, visual rating 0-100; conditions: Flood, 250 g ai/ha, applied to paddy water, rated after 13 to 15 days
[18] = test system: barnyardgrass (Echinochloa crus-galli); experiment: Test B flooded paddy test, visual rating 0-100; conditions: Flood, 250 g ai/ha, applied to paddy water, rated after 13 to 15 days
[19] = test system: rice (Oryza sativa); experiment: Test B flooded paddy test, visual rating 0-100 (0 no effect, 100 complete control); conditions: Flood, 250 g ai/ha, applied to paddy water, rated after 13 to 15 days

Row | Compound | Barnyardgrass plant response rating (0 to 100 scale) ([1]; 125 g ai/ha) | Barnyardgrass plant response rating (0 to 100 scale) ([1]; 500 g ai/ha) | Foxtail, Giant plant response rating (0 to 100 scale) ([2]; 125 g ai/ha) | Foxtail, Giant plant response rating (0 to 100 scale) ([2]; 500 g ai/ha) | Kochia plant response rating (0 to 100 scale) ([3]; 125 g ai/ha) | Kochia plant response rating (0 to 100 scale) ([3]; 500 g ai/ha) | Pigweed plant response rating (0 to 100 scale) ([4]; 125 g ai/ha) | Pigweed plant response rating (0 to 100 scale) ([4]; 500 g ai/ha) | Ragweed plant response rating (0 to 100 scale) ([5]; 125 g ai/ha) | Ragweed plant response rating (0 to 100 scale) ([5]; 500 g ai/ha) | Ryegrass, Italian plant response rating (0 to 100 scale) ([6]; 125 g ai/ha) | Ryegrass, Italian plant response rating (0 to 100 scale) ([6]; 500 g ai/ha) | Barnyardgrass plant response rating ([7]; 125 g ai/ha) | Barnyardgrass plant response rating ([7]; 500 g ai/ha) | Blackgrass plant response rating ([8]; 125 g ai/ha) | Blackgrass plant response rating ([8]; 500 g ai/ha) | Corn plant response rating ([9]; 125 g ai/ha) | Corn plant response rating ([9]; 500 g ai/ha) | Foxtail, Giant plant response rating ([10]; 125 g ai/ha) | Foxtail, Giant plant response rating ([10]; 500 g ai/ha) | also measured
1 | CC1=[N+]([O-])C(C(=O)Nc2cccc(F)c2F)C(c2cccc(C(F)(F)F)n2)C1 (centres unmarked) [Compound 90] | 90 | 90 | 50 | 90 | 0 | 60 | 0 | 0 | 0 | 0 | 0 | 0 | 10 | 80 | 30 | 50 | 0 | 0 | 20 | 90 | Galium plant response rating ([11]; 125 g ai/ha): 20; Galium plant response rating ([11]; 500 g ai/ha): 20; Kochia plant response rating ([12]; 125 g ai/ha): 0; Kochia plant response rating ([12]; 500 g ai/ha): 0; Pigweed plant response rating ([13]; 125 g ai/ha): 0; Pigweed plant response rating ([13]; 500 g ai/ha): 0; Ragweed plant response rating ([14]; 125 g ai/ha): 0; Ragweed plant response rating ([14]; 500 g ai/ha): 0; Ryegrass, Italian plant response rating ([15]; 125 g ai/ha): 0; Ryegrass, Italian plant response rating ([15]; 500 g ai/ha): 0; Wheat plant response rating ([16]; 125 g ai/ha): 0; Wheat plant response rating ([16]; 500 g ai/ha): 0; Ducksalad plant response rating (0 to 100 scale) [17]: 90; Barnyardgrass plant response rating (0 to 100 scale) [18]: 15; Rice plant response rating (0 to 100 scale) [19]: 0
2 | COc1cc(C)cc(C2CC(C)=[N+]([O-])C2C(=O)Nc2cccc(F)c2F)c1 (centres unmarked) [Compound 91] | 90 | 90 | 90 | 90 | 0 | 60 | 0 | 60 | 20 | 70 | 80 | 90 | 70 | 90 | 60 | 80 | 20 | 70 | 70 | 90 | Galium plant response rating ([11]; 125 g ai/ha): 0; Galium plant response rating ([11]; 500 g ai/ha): 30; Kochia plant response rating ([12]; 125 g ai/ha): 0; Kochia plant response rating ([12]; 500 g ai/ha): 30; Pigweed plant response rating ([13]; 125 g ai/ha): 0; Pigweed plant response rating ([13]; 500 g ai/ha): 30; Ragweed plant response rating ([14]; 125 g ai/ha): 0; Ragweed plant response rating ([14]; 500 g ai/ha): 30; Ryegrass, Italian plant response rating ([15]; 125 g ai/ha): 50; Ryegrass, Italian plant response rating ([15]; 500 g ai/ha): 50; Wheat plant response rating ([16]; 125 g ai/ha): 20; Wheat plant response rating ([16]; 500 g ai/ha): 50; Ducksalad plant response rating (0 to 100 scale) [17]: 55; Barnyardgrass plant response rating (0 to 100 scale) [18]: 65; Rice plant response rating (0 to 100 scale) [19]: 0
3 | CC1=[N+]([O-])C(C(=O)Nc2cccc(F)c2F)C(c2cc(C)cc(C(F)(F)F)c2)C1 (centres unmarked) [Compound 92] | 90 | 90 | 90 | 90 | 0 | 50 | 30 | 80 | 0 | 70 | 80 | 90 | 70 | 90 | 70 | 70 | 70 | 80 | 70 | 90 | Galium plant response rating ([11]; 125 g ai/ha): 50; Galium plant response rating ([11]; 500 g ai/ha): 60; Kochia plant response rating ([12]; 125 g ai/ha): 30; Kochia plant response rating ([12]; 500 g ai/ha): 70; Pigweed plant response rating ([13]; 125 g ai/ha): 20; Pigweed plant response rating ([13]; 500 g ai/ha): 60; Ragweed plant response rating ([14]; 125 g ai/ha): 0; Ragweed plant response rating ([14]; 500 g ai/ha): 70; Ryegrass, Italian plant response rating ([15]; 125 g ai/ha): 60; Ryegrass, Italian plant response rating ([15]; 500 g ai/ha): 70; Wheat plant response rating ([16]; 125 g ai/ha): 70; Wheat plant response rating ([16]; 500 g ai/ha): 80; Ducksalad plant response rating (0 to 100 scale) [17]: 25; Barnyardgrass plant response rating (0 to 100 scale) [18]: 70; Rice plant response rating (0 to 100 scale) [19]: 0
4 | CC1=[N+]([O-])C(C(=O)Nc2cccc(F)c2F)C(c2cc(C)cc(Cl)c2)C1 (centres unmarked) [Compound 94] | 90 | 90 | 90 | 90 | 10 | 60 | 20 | 80 | 30 | 90 | 60 | 80 | 80 | 90 | 70 | 90 | 70 | 80 | 80 | 90 | Galium plant response rating ([11]; 125 g ai/ha): 20; Galium plant response rating ([11]; 500 g ai/ha): 60; Kochia plant response rating ([12]; 125 g ai/ha): 20; Kochia plant response rating ([12]; 500 g ai/ha): 30; Pigweed plant response rating ([13]; 125 g ai/ha): 20; Pigweed plant response rating ([13]; 500 g ai/ha): 70; Ragweed plant response rating ([14]; 125 g ai/ha): 20; Ragweed plant response rating ([14]; 500 g ai/ha): 70; Ryegrass, Italian plant response rating ([15]; 125 g ai/ha): 60; Ryegrass, Italian plant response rating ([15]; 500 g ai/ha): 90; Wheat plant response rating ([16]; 125 g ai/ha): 40; Wheat plant response rating ([16]; 500 g ai/ha): 80; Ducksalad plant response rating (0 to 100 scale) [17]: 100; Barnyardgrass plant response rating (0 to 100 scale) [18]: 60; Rice plant response rating (0 to 100 scale) [19]: 0
